Results: ChEMBL document CHEMBL4725475, “Discovery of Potent and Selective 7-Azaindole Isoindolinone-Based PI3Kγ Inhibitors” (ACS Med Chem Lett, 2020)

Columns and labels:
[1] = target: T1, Phosphatidylinositol 4,5-bisphosphate 3-kinase catalytic subunit gamma isoform (Homo sapiens, UniProt P48736); test: Inhibition of PI3K p120gamma (unknown origin) using phosphatidylinositol 4,5-bisphosphate as substrate in presence of ATP incubated for 60 mins by ADP-Glo assay
Homo sapiens [2] = species on record: Homo sapiens; test: Selectivity index, ratio of inhibition for PI3Kalpha (unknown origin) to inhibition for PI3K p120 gamma (unknown origin) using phosphatidylinositol 4,5-bisphosphate as substrate in presence of ATP incubated for 60 mins by ADP-Glo assay
Homo sapiens [3] = species on record: Homo sapiens; test: Selectivity index, ratio of inhibition for PI3Kdelta (unknown origin) to inhibition for PI3K p120 gamma (unknown origin) using phosphatidylinositol 4,5-bisphosphate as substrate in presence of ATP incubated for 60 mins by ADP-Glo assay
[4] = target: T1, Phosphatidylinositol 4,5-bisphosphate 3-kinase catalytic subunit gamma isoform; test: Inhibition of PI3Kgamma in human THP-1 cells assessed as reduction in Akt phosphorylation at S473 residue incubated for 60 mins measured after 120 mins by alphalisa assay; format: cell-based

T1 sequence (P48736 whole entry, canonical isoform): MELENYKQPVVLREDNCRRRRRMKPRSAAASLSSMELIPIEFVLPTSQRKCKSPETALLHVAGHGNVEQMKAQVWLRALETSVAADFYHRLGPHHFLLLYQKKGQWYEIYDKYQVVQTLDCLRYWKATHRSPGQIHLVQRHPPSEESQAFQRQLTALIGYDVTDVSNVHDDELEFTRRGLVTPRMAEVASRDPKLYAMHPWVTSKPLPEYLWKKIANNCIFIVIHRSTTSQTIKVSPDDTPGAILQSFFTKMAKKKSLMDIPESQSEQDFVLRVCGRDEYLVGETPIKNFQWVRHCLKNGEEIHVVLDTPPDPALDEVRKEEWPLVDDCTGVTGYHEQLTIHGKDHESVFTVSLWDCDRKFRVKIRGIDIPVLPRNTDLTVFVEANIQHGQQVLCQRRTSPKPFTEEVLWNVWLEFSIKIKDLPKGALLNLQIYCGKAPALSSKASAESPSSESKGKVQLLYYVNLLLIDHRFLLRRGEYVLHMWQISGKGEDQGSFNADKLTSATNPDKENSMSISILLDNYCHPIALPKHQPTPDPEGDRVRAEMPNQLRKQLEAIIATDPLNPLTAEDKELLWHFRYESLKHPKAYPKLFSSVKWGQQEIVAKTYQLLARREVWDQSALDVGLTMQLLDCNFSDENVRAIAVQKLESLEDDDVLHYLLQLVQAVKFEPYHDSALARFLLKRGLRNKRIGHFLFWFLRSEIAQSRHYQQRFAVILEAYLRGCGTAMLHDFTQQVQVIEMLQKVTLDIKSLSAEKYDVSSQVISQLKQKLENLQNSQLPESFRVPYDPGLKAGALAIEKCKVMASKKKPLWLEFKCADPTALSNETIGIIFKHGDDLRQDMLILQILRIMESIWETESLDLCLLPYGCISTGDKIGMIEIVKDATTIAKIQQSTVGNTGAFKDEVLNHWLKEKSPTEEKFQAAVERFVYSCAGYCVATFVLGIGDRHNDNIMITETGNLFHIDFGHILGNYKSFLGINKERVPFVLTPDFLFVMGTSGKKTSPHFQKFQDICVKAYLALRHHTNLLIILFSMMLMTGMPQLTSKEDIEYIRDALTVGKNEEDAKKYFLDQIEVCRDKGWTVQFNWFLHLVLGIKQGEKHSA

| IC50 [1] | Selectivity ratio (Homo sapiens [2]) | Selectivity ratio (Homo sapiens [3]) | IC50 [4] | Compound |
| --- | --- | --- | --- | --- |
| 1.2 nM | 691 | 367 | 70 nM | Cc1cc(-c2cnc3[nH]cc(-c4cc(C)c(C(=O)O)c(C5CC5)c4)c3c2)cc2c1C(=O)N([C@@H](C)C1CC1)C2 |
| 3.3 nM | 416 | 183 | 600 nM | Cc1cc(-c2cnc3[nH]cc(-c4ccc(C(C)(C)O)nc4)c3c2)cc2c1C(=O)N([C@@H](C)C1CC1)C2 |
| 5 nM | 1060 | 463 | 400 nM | Cc1cc(-c2cnc3[nH]cc(-c4ccc(S(N)(=O)=O)cc4)c3c2)cc2c1C(=O)N([C@@H](C)C1CC1)C2 |
| 1.5 nM | 369 | 494 | 170 nM | COc1cc(-c2c[nH]c3ncc(-c4cc(C)c5c(c4)CN([C@@H](C)C4CC4)C5=O)cc23)ccc1C(=O)O |
| 2.1 nM | 224 | 344 | 59 nM | Cc1cc(-c2cnc3[nH]cc(-c4ccc(C(=O)O)c(C(C)C)c4)c3c2)cc2c1C(=O)N([C@@H](C)C1CC1)C2 |
| 5.8 nM | 214 | 640 | 400 nM | Cc1cc(-c2cnc3[nH]cc(-c4ccnc(N)c4)c3c2)cc2c1C(=O)N([C@@H](C)C1CC1)C2 |
| 3.1 nM | 546 | 1050 | 700 nM | Cc1cc(-c2cnc3[nH]cc(-c4ccc(C(=O)O)c(F)c4)c3c2)cc2c1C(=O)N([C@@H](C)C1CC1)C2 |
| 9 nM |  |  |  | Cc1cc(-c2cnc3[nH]cc(-c4ccncc4)c3c2)cc2c1C(=O)N([C@H](C)C1CC1)C2 |
| 42 nM | > 242 | > 242 | 3500 nM | Cc1cc(-c2cnc3[nH]cc(-c4ccc(C#N)cc4)c3c2)cc2c1C(=O)N([C@@H](C)C1CC1)C2 |
| 1.6 nM | 585 | 494 | 40 nM | Cc1cc(-c2cnc3[nH]cc(-c4ccc(C(=O)O)c(C5CC5)c4)c3c2)cc2c1C(=O)N([C@@H](C)C1CC1)C2 |
| 2.7 nM | 321 | 772 | 110 nM | Cc1cc(-c2cnc3[nH]cc(-c4cccc(C(=O)O)c4)c3c2)cc2c1C(=O)N([C@@H](C)C1CC1)C2 |
| 7 nM | 89 | 112 | 400 nM | Cc1cc(-c2cnc3[nH]cc(-c4cccnc4)c3c2)cc2c1C(=O)N(C(C)C1CC1)C2 (racemic) |
| 4 nM | 853 | 49 | 170 nM | Cc1cc(-c2cnc3[nH]cc(-c4ccc(C(=O)O)c(N5CCCC5)c4)c3c2)cc2c1C(=O)N([C@@H](C)C1CC1)C2 |
| 2.59 nM | 711 | 226 | 230 nM | Cc1cc(-c2cnc3[nH]cc(-c4ccc(C(N)=O)cc4)c3c2)cc2c1C(=O)N([C@@H](C)C1CC1)C2 |
| 5 nM | > 1560 | > 1900 | 260 nM | Cc1ccc(-c2c[nH]c3ncc(-c4cc(C)c5c(c4)CN([C@@H](C)C4CC4)C5=O)cc23)cc1C(=O)O |
| 33 nM | > 308 | > 308 | 3500 nM | Cc1cc(-c2cnc3[nH]cc(-c4ccccn4)c3c2)cc2c1C(=O)N([C@@H](C)C1CC1)C2 |
| 26 nM | 466 | 128 | 200 nM | Cc1cc(-c2cnc3[nH]cc(-c4ccn(C)c(=O)c4)c3c2)cc2c1C(=O)N([C@@H](C)C1CC1)C2 |
| 1.64 nM | 380 | 591 | 350 nM | Cc1cc(-c2cnc3[nH]cc(-c4ccc(C(=O)O)c(C(F)(F)F)c4)c3c2)cc2c1C(=O)N([C@@H](C)C1CC1)C2 |
| 16 nM | > 578 | > 552 | 4000 nM | Cc1cc(-c2cnc3[nH]cc(-c4ccnc(C(F)(F)F)c4)c3c2)cc2c1C(=O)N([C@@H](C)C1CC1)C2 |
| 180 nM | > 59 | > 59 | 15000 nM | Cc1cc(-c2cnc3[nH]cc(-c4ccccc4C(=O)O)c3c2)cc2c1C(=O)N([C@@H](C)C1CC1)C2 |
| 13 nM | > 775 | > 775 | 11000 nM | Cc1cc(-c2cnc3[nH]cc(C(=O)O)c3c2)cc2c1C(=O)N([C@@H](C)C1CC1)C2 |

Second part, the compound before the results:

| Compound | IC50 [1] | Selectivity ratio (Homo sapiens [2]) | Selectivity ratio (Homo sapiens [3]) | IC50 [4] |
| --- | --- | --- | --- | --- |
| Cc1cc(-c2cnc3[nH]cc(-c4ccncc4)c3c2)cc2c1C(=O)N(CC(F)(F)F)C2 | 25.3 nM | 42 | 62 | 1600 nM |
| COC[C@H](C)N1Cc2cc(-c3cnc4[nH]cc(-c5ccncc5)c4c3)cc(C)c2C1=O | 9 nM | 51 | 216 | 600 nM |
| CC(C)c1cc(-c2cnc3[nH]cc(-c4cnn(C)c4)c3c2)cc2c1C(=O)N([C@@H](C)C1CC1)C2 | 4.2 nM | 898 | 1380 | 300 nM |
| C[C@@H](C1CC1)N1Cc2cc(-c3cnc4[nH]cc(-c5cnn(C)c5)c4c3)cc(C#N)c2C1=O | 3.7 nM | 1060 | 244 | 170 nM |
| Cc1cc(-c2cnc3[nH]cc(-c4ccncc4)c3c2)cc2c1C(=O)N(C(C)(C)C1CC1)C2 | 28 nM | 74 | 100 | 1100 nM |
| C[C@@H](C1CC1)N1Cc2cc(-c3cnc4[nH]cc(-c5cnn(C)c5)c4c3)cc(Cl)c2C1=O | 2.4 nM | 455 | 533 | 170 nM |
| Cc1cc(-c2cnc3[nH]cc(-c4ccncc4)c3c2)cc2c1C(=O)N(C1CCOCC1)C2 | 50 nM | 7 | 18 | 1000 nM |
| Cc1cc(-c2cnc3[nH]ncc3n2)cc2c1C(=O)N([C@@H](C)C1CC1)C2 | 80 nM |  |  |  |
| CNC(=O)c1cc(-c2cnc3[nH]cc(-c4cnn(C)c4)c3c2)cc2c1C(=O)N([C@@H](C)C1CC1)C2 | 7.9 nM | 1050 | > 1180 | 730 nM |
| COc1cc(-c2cnc3[nH]cc(-c4cnn(C)c4)c3c2)cc2c1C(=O)N([C@@H](C)C1CC1)C2 | 4.3 nM | > 1670 | 365 | 170 nM |
| C[C@@H](C1CC1)N1Cc2cc(-c3cnc4[nH]cc(-c5cnn(C)c5)c4c3)cc(S(=O)(=O)N(C)C)c2C1=O | 2.6 nM | 254 | 159 | 100 nM |
| C[C@@H](C1CC1)N1Cc2cc(-c3cnc4[nH]cc(-c5cnn(C)c5)c4c3)cc(NS(C)(=O)=O)c2C1=O | 4 nM | 449 | 615 | 150 nM |
| Cc1cc(-c2cnc3[nH]cc(C4CCNC4)c3c2)cc2c1C(=O)N([C@@H](C)C1CC1)C2 (stereo not given in full) | 281 nM | > 36 | > 36 | 3800 nM |
| Cc1cc(-c2cnc3[nH]nc(-c4ccncc4)c3c2)cc2c1C(=O)N([C@@H](C)C1CC1)C2 | 8 nM |  |  |  |
| Cc1cc(-c2cnc3[nH]ncc3c2)cc2c1C(=O)N([C@@H](C)C1CC1)C2 | 35 nM |  |  |  |
| Cc1cc(-c2cnc3[nH]ncc3c2)cc2c1C(=O)N(C(C)C1CC1)C2 (racemic) | 90 nM |  |  |  |
| CNS(=O)(=O)c1cc(-c2cnc3[nH]cc(-c4cnn(C)c4)c3c2)cc2c1C(=O)N([C@@H](C)C1CC1)C2 | 4 nM | > 4160 | 101 | 70 nM |
| CC[C@@H](C1CC1)N1Cc2cc(-c3cnc4[nH]cc(-c5ccncc5)c4c3)cc(C)c2C1=O | 6 nM | 255 | > 414 | 800 nM |
| Cc1cc(-c2cnc3[nH]cc(C(=O)NC4CCOCC4)c3c2)cc2c1C(=O)N([C@@H](C)C1CC1)C2 | 4.5 nM | > 2240 | 1030 | 320 nM |
| Cc1cc(-c2cnc3[nH]cc(-c4ccncc4)c3c2)cc2c1C(=O)N([C@@H](C)c1ccc(F)cc1)C2 | 40 nM | 142 | > 190 | 2100 nM |
| Cc1cc(-c2cnc3[nH]cc(-c4ccncc4)c3c2)cc2c1C(=O)N(C(C)(C)C)C2 | 26 nM | 62 | 107 | 720 nM |
| CC(=O)Nc1cc(-c2cnc3[nH]cc(-c4cnn(C)c4)c3c2)cc2c1C(=O)N([C@@H](C)C1CC1)C2 | 2.5 nM | > 1060 | > 2740 | 500 nM |
| Cc1cc(-c2cnc3[nH]cc(C(=O)Nc4ccncc4)c3c2)cc2c1C(=O)N([C@@H](C)C1CC1)C2 | 12 nM | > 856 | > 856 | 1300 nM |
| Cc1cc(-c2cnc3[nH]c(=O)ccc3c2)cc2c1C(=O)N(C(C)C1CC1)C2 (racemic) | 530 nM |  |  |  |
| C[C@@H](C1CC1)N1Cc2cc(-c3cnc4[nH]cc(-c5cnn(C)c5)c4c3)cc(C(F)(F)F)c2C1=O | 2.4 nM | 2800 | 266 | 90 nM |
| Cc1cc(-c2cnc3cn[nH]c3c2)cc2c1C(=O)N(C(C)C1CC1)C2 (racemic) | 490 nM |  |  |  |
| Cc1cc(-c2cnc3[nH]nnc3c2)cc2c1C(=O)N(C(C)C1CC1)C2 (racemic) | 1600 nM |  |  |  |
| Cc1cc(-c2cnc3c(c2)CC(=O)N3)cc2c1C(=O)N(C(C)C1CC1)C2 (racemic) | 600 nM |  |  |  |
| Cc1cc(-c2cnc3[nH]ccc3c2)cc2c1C(=O)N([C@@H](C)C1CC1)C2 | 50 nM |  |  |  |
